Experimental data from patent US20240228468A1, “N-(6-((OCTAHYDROCYCLOPENTA[C]PYRROL-5-YI)AMINO)PYRIDAZIN-3-YL)PHENYL)CARBOXAMIDE AND (6- ((OCTAHYDROCYCLOPENTA[C]PYRROL-5-YL)AMINO)PYRIDAZIN-3-YL)BENZAMIDE DERIVATIVES AS MACHR M4 ANTAGONISTS FOR THE TREATMENT OF NEURODEGENERATIVE DISORDERS” (Vanderbilt University, priority 2021, published 2024).

Molecular target: T1, Human M4 (Homo sapiens, UniProt P08173)
T1 construct: expressed in transfected cells; host or cells: CHO-K1 (ATCC), co-transfected with chimeric G protein Gqi5
T1 sequence (P08173 1-479): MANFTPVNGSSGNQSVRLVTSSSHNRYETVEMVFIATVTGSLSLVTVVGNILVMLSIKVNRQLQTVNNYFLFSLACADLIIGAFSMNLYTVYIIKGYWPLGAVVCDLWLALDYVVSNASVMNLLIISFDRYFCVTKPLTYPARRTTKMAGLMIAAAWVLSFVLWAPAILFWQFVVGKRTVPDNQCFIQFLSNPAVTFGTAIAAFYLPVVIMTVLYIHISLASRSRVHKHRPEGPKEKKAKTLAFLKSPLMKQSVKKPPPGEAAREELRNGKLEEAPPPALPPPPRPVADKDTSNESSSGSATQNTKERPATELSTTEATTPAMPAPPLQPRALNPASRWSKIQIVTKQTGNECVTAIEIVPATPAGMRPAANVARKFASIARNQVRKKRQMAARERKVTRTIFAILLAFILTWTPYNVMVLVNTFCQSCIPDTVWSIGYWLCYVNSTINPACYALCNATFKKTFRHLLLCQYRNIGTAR
Test: mAChR M4 cell-based functional assay (calcium flux, antagonism of EC80 acetylcholine response)
Conditions: M4/Gqi5/CHO-K1 cells; for remaining activity at 30 µM: % ACh maximum at 30 μM, read-out: Human M4 Emin (% ACh maximum at 30 μM); for IC50: concentration-dependent decrease of the response elicited by an EC80 concentration of acetylcholine
Protocol: Human or rat M4 cDNA, along with the chimeric G protein Gqi5, were transfected into Chinese hamster ovary (CHO-K1) cells purchased from the American Type Culture Collection using Lipofectamine2000. M4/Gqi5/CHO cells were grown in Ham's F-12 medium containing 10% heat-inactivated fetal bovine serum (FBS), 20 mM HEPES, 500 μg/mL G418 sulfate, and 200 μg/mL Hygromycin B.
For high throughput measurement of agonist-evoked increases in intracellular calcium, CHO-K1 cells stably expressing muscarinic receptors were plated in growth medium lacking G418 and hygromycin at 15,000 cells/20 μL/well in Greiner 384-well black-walled, tissue culture (TC)-treated, clear-bottom plates (VWR). Cells were incubated overnight at 37° C. and 5% CO2. The next day, cells were washed using an ELX 405 (BioTek) with assay buffer; the final volume was then aspirated to 20 μL. Next, 20 μL of a 2.3 μM stock of Fluo-4/acetoxymethyl ester (Invitrogen, Carlsbad, CA), prepared as a 2.3 mM stock in DMSO and mixed in a 1:1 ratio with 10% (w/v) Pluronic F-127 and diluted in assay buffer, was added to the wells and the cell plates were incubated for 50 min at 37° C. and 5% CO2. Dye was removed by washing with the ELX 405 and the final volume was aspirated to 20 μL. Compound master plates were formatted in a 10 point concentration-response curve (CRC) format (1:3 dilutions) in 100% DMSO with a starting concentration of 10 or 1 mM using a BRAVO liquid handler (Agilent). Test compound CRCs were then transferred to daughter plates (240 nL) using the Echo acoustic plate reformatter (Labcyte, Sunnyvale, CA) and then diluted into assay buffer (40 μL) to a 2× stock using a Thermo Fisher Combi (Thermo Fisher Scientific, Waltham, MA).
Calcium flux was measured using the Functional Drug Screening System (FDSS) 6000 or 7000 (Hamamatsu Corporation, Tokyo, Japan) as an increase in the fluorescent static ratio. Compounds were applied to cells (20 μL, 2×) using the automated system of the FDSS at 2 seconds into the protocol and the data were collected at 1 Hz. At 143 s, 10 μL of an EC20 concentration of the muscarinic receptor agonist acetylcholine was added (5×), followed by the addition of 12 μL of an EC80 concentration of acetylcholine at the 268 s time point (5×). Agonist activity was analyzed as a concentration-dependent increase in calcium mobilization upon compound addition. Positive allosteric modulator activity was analyzed as a concentration-dependent increase in the EC20 acetylcholine response. Antagonist activity was analyzed as a concentration-dependent decrease in the EC80 acetylcholine response; for the purposes of the tables herein, an IC50 (inhibitory concentration 50) was calculated as a concentration-dependent decrease of the response elicited by an EC80 concentration of acetylcholine. Concentration-response curves were generated using a four-parameter logistical equation in XLFit curve fitting software (IDBS, Bridgewater, NJ) for Excel (Microsoft, Redmond, WA) or Prism (GraphPad Software, Inc., San Diego, CA) or the Dotmatics software platform (Dotmatics, Bishop's Stortford, UK).
Compounds were synthesized as described above. Activity (IC50 and Emin) was determined in the mAChR M4 cell-based functional assay as described above and the data are shown in Table 2.

Row | Structure (SMILES) | remaining activity at 30 µM | IC50
1 | O=C(Nc1ccc(-c2ccc(N[C@H]3C[C@@H]4CN(CC5CCOCC5)C[C@@H]4C3)nn2)cc1)C1CC1 [Compound A26, N-(4-(6-(((3aR,5s,6aS)-2-((tetrahydro-2H-pyran-4-yl)methyl)octahydrocyclopenta[c]pyrrol-5-yl)amino)pyridazin-3-yl)phenyl)cyclopropanecarboxamide] | 3% | 6.8 nM
2 | O=C(NC1CC1)c1ccc(-c2ccc(N[C@H]3C[C@@H]4CN(CC5CCOCC5)C[C@@H]4C3)nn2)cc1 [Compound A27, N-cyclopropyl-4-(6-(((3aR,5s,6aS)-2-((tetrahydro-2H-pyran-4-yl)methyl)octahydrocyclopenta[c]pyrrol-5-yl)amino)pyridazin-3-yl)benzamide] | 3% | 3.9 nM
3 | O=C(NC1CC1)c1cccc(-c2ccc(N[C@H]3C[C@@H]4CN(CC5CCOCC5)C[C@@H]4C3)nn2)c1 [Compound A28, N-cyclopropyl-3-(6-(((3aR,5s,6aS)-2-((tetrahydro-2H-pyran-4-yl)methyl)octahydrocyclopenta[c]pyrrol-5-yl)amino)pyridazin-3-yl)benzamide] | 3% | 25 nM
4 | CC(=O)Nc1cccc(-c2ccc(N[C@H]3C[C@@H]4CN(CC5CCOCC5)C[C@@H]4C3)nn2)c1 [Compound A29, N-(3-(6-(((3aR,5s,6aS)-2-((tetrahydro-2H-pyran-4-yl)methyl)octahydrocyclopenta[c]pyrrol-5-yl)amino)pyridazin-3-yl)phenyl)acetamide] | 3% | 34 nM
5 | O=C(Nc1cccc(-c2ccc(N[C@H]3C[C@@H]4CN(CC5CCOCC5)C[C@@H]4C3)nn2)c1)C1CC1 [Compound A30, N-(3-(6-(((3aR,5s,6aS)-2-((tetrahydro-2H-pyran-4-yl)methyl)octahydrocyclopenta[c]pyrrol-5-yl)amino)pyridazin-3-yl)phenyl)cyclopropanecarboxamide] | 3% | 13 nM
6 | [2H]C([2H])(C1CCOCC1)N1C[C@H]2C[C@H](Nc3ccc(-c4cccc(NC(C)=O)c4)nn3)C[C@H]2C1 [Compound A31, N-(3-(6-(((3aR,5s,6aS)-2-((tetrahydro-2H-pyran-4-yl)methyl-d2)octahydrocyclopenta[c]pyrrol-5-yl)amino)pyridazin-3-yl)phenyl)acetamide] | 3% | 11 nM
7 | [2H]C([2H])(C1CCOCC1)N1C[C@H]2C[C@H](Nc3ccc(-c4cccc(NC(=O)C5CC5)c4)nn3)C[C@H]2C1 [Compound A32, N-(3-(6-(((3aR,5s,6aS)-2-((tetrahydro-2H-pyran-4-yl)methyl-d2)octahydrocyclopenta[c]pyrrol-5-yl)amino)pyridazin-3-yl)phenyl)cyclopropanecarboxamide] | 3% | 16 nM
8 | [2H]C([2H])(C1CCOCC1)N1C[C@H]2C[C@H](Nc3ccc(-c4cccc(C(=O)NC5CC5)c4)nn3)C[C@H]2C1 [Compound A33, N-cyclopropyl-3-(6-(((3aR,5s,6aS)-2-((tetrahydro-2H-pyran-4-yl)methyl-d2)octahydrocyclopenta[c]pyrrol-5-yl)amino)pyridazin-3-yl)benzamide] | 3% | 22 nM
9 | [2H]C([2H])(C1CCOCC1)N1C[C@H]2C[C@H](Nc3ccc(-c4ccc(C(=O)NC5CC5)cc4)nn3)C[C@H]2C1 [Compound A34, N-cyclopropyl-4-(6-(((3aR,5s,6aS)-2-((tetrahydro-2H-pyran-4-yl)methyl-d2)octahydrocyclopenta[c]pyrrol-5-yl)amino)pyridazin-3-yl)benzamide] | 4% | 1.1 nM
10 | [2H]C([2H])(C1CCOCC1)N1C[C@H]2C[C@H](Nc3ccc(-c4ccc(NC(=O)C5CC5)cc4)nn3)C[C@H]2C1 [Compound A35, N-(4-(6-(((3aR,5s,6aS)-2-((tetrahydro-2H-pyran-4-yl)methyl-d2)octahydrocyclopenta[c]pyrrol-5-yl)amino)pyridazin-3-yl)phenyl)cyclopropanecarboxamide] | 4% | 1.2 nM
11 | NC(=O)c1ccc(-c2ccc(N[C@H]3C[C@@H]4CN(CC5CCOCC5)C[C@@H]4C3)nn2)c(F)c1 [Compound A36, 3-fluoro-4-(6-(((3aR,5s,6aS)-2-((tetrahydro-2H-pyran-4-yl)methyl)octahydrocyclopenta[c]pyrrol-5-yl)amino)pyridazin-3-yl)benzamide] | 4% | 5.1 nM
12 | CN(C)C(=O)c1ccc(-c2ccc(N[C@H]3C[C@@H]4CN(CC5CCOCC5)C[C@@H]4C3)nn2)c(F)c1 [Compound A37, 3-fluoro-N,N-dimethyl-4-(6-(((3aR,5s,6aS)-2-((tetrahydro-2H-pyran-4-yl)methyl)octahydrocyclopenta[c]pyrrol-5-yl)amino)pyridazin-3-yl)benzamide] | 5% | 14 nM
13 | CCN(CC)C(=O)c1ccc(-c2ccc(N[C@H]3C[C@@H]4CN(CC5CCOCC5)C[C@@H]4C3)nn2)c(F)c1 [Compound A38, N,N-diethyl-3-fluoro-4-(6-(((3aR,5s,6aS)-2-((tetrahydro-2H-pyran-4-yl)methyl)octahydrocyclopenta[c]pyrrol-5-yl)amino)pyridazin-3-yl)benzamide] | 4% | 48 nM
14 | CCC(=O)Nc1ccc(-c2ccc(N[C@H]3C[C@@H]4CN(CC5CCOCC5)C[C@@H]4C3)nn2)cc1 [Compound A39, N-(4-(6-(((3aR,5s,6aS)-2-((tetrahydro-2H-pyran-4-yl)methyl)octahydrocyclopenta[c]pyrrol-5-yl)amino)pyridazin-3-yl)phenyl)propionamide] | 3% | 3.1 nM
15 | [2H]C([2H])(C1CCOCC1)N1C[C@H]2C[C@H](Nc3ccc(-c4ccc(NC(=O)CC)cc4)nn3)C[C@H]2C1 [Compound A40, N-(4-(6-(((3aR,5s,6aS)-2-((tetrahydro-2H-pyran-4-yl)methyl-d2)octahydrocyclopenta[c]pyrrol-5-yl)amino)pyridazin-3-yl)phenyl)propionamide] | 3% | 2.5 nM
16 | CNC(=O)c1cccc(-c2ccc(N[C@H]3C[C@@H]4CN(CC5CCOCC5)C[C@@H]4C3)nn2)c1 [Compound A41, N-methyl-3-(6-(((3aR,5s,6aS)-2-((tetrahydro-2H-pyran-4-yl)methyl)octahydrocyclopenta[c]pyrrol-5-yl)amino)pyridazin-3-yl)benzamide] | 5% | 12 nM
17 | CCNC(=O)c1cccc(-c2ccc(N[C@H]3C[C@@H]4CN(CC5CCOCC5)C[C@@H]4C3)nn2)c1 [Compound A43, N-ethyl-3-(6-(((3aR,5s,6aS)-2-((tetrahydro-2H-pyran-4-yl)methyl)octahydrocyclopenta[c]pyrrol-5-yl)amino)pyridazin-3-yl)benzamide] | 4% | 13 nM
